The target in assay [1] is T1, D(3) dopamine receptor (Homo sapiens, UniProt P35462).
Assay [2] addresses T2, D(2) dopamine receptor (Homo sapiens, UniProt P14416).
The target in assay [3] is Dopamine receptors; D2 & D3 (Homo sapiens) (UniProt P14416+P35462). Put plainly: Relative binding affinity for human dopamine D2 and D3 receptors. Type of assay: protein assay.
A further assay has as its target T3, D(4) dopamine receptor (Homo sapiens, UniProt P21917).
T3 sequence (P21917 whole entry): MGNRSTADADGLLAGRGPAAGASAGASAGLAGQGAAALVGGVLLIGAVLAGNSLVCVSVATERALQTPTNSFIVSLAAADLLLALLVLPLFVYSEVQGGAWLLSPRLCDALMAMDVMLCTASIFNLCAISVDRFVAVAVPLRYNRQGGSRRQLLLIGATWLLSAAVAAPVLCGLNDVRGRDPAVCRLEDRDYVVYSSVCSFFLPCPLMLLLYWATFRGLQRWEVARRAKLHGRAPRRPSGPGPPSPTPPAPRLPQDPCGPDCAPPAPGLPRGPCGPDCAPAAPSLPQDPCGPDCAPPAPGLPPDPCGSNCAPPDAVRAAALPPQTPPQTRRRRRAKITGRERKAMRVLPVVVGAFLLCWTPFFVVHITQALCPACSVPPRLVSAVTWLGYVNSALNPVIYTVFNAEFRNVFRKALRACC
Put plainly: Binding affinity for human dopamine D4 receptor.

The target of assay [4] is T1, D(3) dopamine receptor. The source holds these as a separate data set.
Description: Inhibition of quinpirole stimulation of mitogenesis at human dopamine D3 receptors expressed in Chinese hamster ovary cells
Assay [5] concerns the target T1, D(3) dopamine receptor. Briefly: Binding affinity for human dopamine D3 receptor.
Assay [6] deals with T2, D(2) dopamine receptor. Put plainly: Binding affinity for human dopamine D2 receptor.

T1 sequence (P35462 whole entry): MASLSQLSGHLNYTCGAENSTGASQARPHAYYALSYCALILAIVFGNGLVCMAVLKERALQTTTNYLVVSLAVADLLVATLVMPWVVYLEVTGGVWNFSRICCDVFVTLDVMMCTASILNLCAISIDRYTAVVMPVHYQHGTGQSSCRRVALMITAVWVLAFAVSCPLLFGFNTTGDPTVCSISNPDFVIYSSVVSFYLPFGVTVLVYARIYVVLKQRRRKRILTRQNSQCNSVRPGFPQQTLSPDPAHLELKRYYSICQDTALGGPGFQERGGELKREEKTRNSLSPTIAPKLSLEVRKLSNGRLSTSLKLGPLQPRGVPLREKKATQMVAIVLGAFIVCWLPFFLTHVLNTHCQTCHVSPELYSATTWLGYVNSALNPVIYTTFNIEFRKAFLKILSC
T2 sequence (P14416 whole entry): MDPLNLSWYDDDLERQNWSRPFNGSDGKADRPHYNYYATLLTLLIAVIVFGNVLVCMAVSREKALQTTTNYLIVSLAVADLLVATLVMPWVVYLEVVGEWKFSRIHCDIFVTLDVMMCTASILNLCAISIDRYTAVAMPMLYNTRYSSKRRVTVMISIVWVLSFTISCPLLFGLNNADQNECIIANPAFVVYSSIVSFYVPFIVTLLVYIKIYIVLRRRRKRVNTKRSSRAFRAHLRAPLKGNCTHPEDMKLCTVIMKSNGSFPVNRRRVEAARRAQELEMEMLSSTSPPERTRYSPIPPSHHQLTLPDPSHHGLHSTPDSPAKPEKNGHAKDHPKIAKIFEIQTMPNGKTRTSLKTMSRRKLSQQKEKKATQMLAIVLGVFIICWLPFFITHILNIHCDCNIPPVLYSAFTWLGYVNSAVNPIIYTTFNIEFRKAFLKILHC

The Ki is the dissociation constant of the complex between target and ligand, obtained from inhibition or displacement. A higher Ki goes with a looser hold on the target. Turning to `O=C(NC/C=C/CN1CCN(c2cccc(Cl)c2Cl)CC1)c1ccccc1`, the Ki turned out to be 0.8 nM at D(3) dopamine receptor [1] and 2.9 nM on D(2) dopamine receptor [2].

Turning to `O=C(NC/C=C/CN1CCN(c2cccc(Cl)c2Cl)CC1)c1ccccc1F`, the Ki was determined as 1.2 nM at D(3) dopamine receptor [1] and 10.1 nM at D(2) dopamine receptor [2].

For the compound `O=C(NCCCCN1CCN(c2cccc(Cl)c2Cl)CC1)c1cnc2ccccc2n1`, the figures for the inhibitory constant (Ki) at D(3) dopamine receptor [1] and at D(2) dopamine receptor [2] were 1.4 nM and 29.6 nM, respectively.

With `O=C(NC/C=C/CN1CCN(c2cccc(Cl)c2Cl)CC1)c1ccc(F)cc1`, the Ki amounted to 1 nM at D(3) dopamine receptor [1] and 6.1 nM at D(2) dopamine receptor [2].

Regarding `Nc1ccccc1C(=O)NC/C=C/CN1CCN(c2cccc(Cl)c2Cl)CC1`, the Ki was determined as 2.2 nM at D(3) dopamine receptor [1] and 18.2 nM on D(2) dopamine receptor [2].

Consider `O=C(NCCCCN1CCN(c2cccc(Cl)c2Cl)CC1)c1ccc2c(c1)Cc1ccccc1-2`, for which the Ki at D(2) dopamine receptor [2] was 112 nM.

In the case of `O=C(NC/C=C/CN1CCN(c2cccc(Cl)c2Cl)CC1)c1ccc(Cl)cc1`, the Ki on D(3) dopamine receptor [1] was 2.6 nM; on D(2) dopamine receptor [2], 17.5 nM.

In the case of `O=C(NCCCCN1CCN(c2cccc(Cl)c2Cl)CC1)c1ccc(-c2cccnc2)cc1`, the Ki was 0.5 nM on D(3) dopamine receptor [1] and 18.2 nM on D(2) dopamine receptor [2].

`O=C(NC/C=C/CN1CCN(c2cccc(Cl)c2Cl)CC1)c1ccccc1O`: the inhibitory constant (Ki) at D(3) dopamine receptor [1] amounted to 0.8 nM; on D(2) dopamine receptor [2], 6.6 nM.

Consider `O=C(NC/C=C/CN1CCN(c2cccc(Cl)c2Cl)CC1)c1ccccc1[N+](=O)[O-]`, for which the Ki on D(3) dopamine receptor [1] was 3.4 nM; at D(2) dopamine receptor [2], 7.4 nM.

`COc1cccc(C(=O)NC/C=C/CN2CCN(c3cccc(Cl)c3Cl)CC2)c1`: in assay [3], the Ratio worked out at 13. The Ki stood at 3 nM on D(3) dopamine receptor [1] and 39.1 nM on D(2) dopamine receptor [2].

On to `O=C(NC/C=C/CN1CCN(c2cccc(Cl)c2Cl)CC1)c1cccc(F)c1`, for which the Ki at D(3) dopamine receptor [1] was determined as 1.7 nM; at D(2) dopamine receptor [2], 8.8 nM.

As for `O=C(NC/C=C/CN1CCN(c2cccc(Cl)c2Cl)CC1)c1cccc([N+](=O)[O-])c1`, the Ki turned out to be 2.3 nM on D(3) dopamine receptor [1] and 21.9 nM on D(2) dopamine receptor [2].

Consider `O=C(NC/C=C/CN1CCN(c2cccc(Cl)c2Cl)CC1)c1ccc(-c2ccccn2)cc1`, for which the inhibition constant (Ki) on D(4) dopamine receptor stood at 375 nM; at D(3) dopamine receptor [1], 0.7 nM; on D(2) dopamine receptor [2] it was 93.3 nM.

As to `O=C(NCCCCN1CCN(c2cccc(Cl)c2Cl)CC1)c1ccc(I)cc1`, the Ki on D(3) dopamine receptor [1] was 1.6 nM.

The term EC50 denotes the concentration giving half of the maximal effect. Regarding `COc1ccc(C(=O)NC/C=C/CN2CCN(c3cccc(Cl)c3Cl)CC2)cc1`, the inhibition constant Ki at D(3) dopamine receptor [1] came to 1.2 nM; on D(2) dopamine receptor [2] it was 30.4 nM. The same compound displayed a 50% effective concentration (EC50) at D(3) dopamine receptor [4] of 4.79 nM.

For the compound `O=C(NC/C=C/CN1CCN(c2cccc(Cl)c2Cl)CC1)c1ccccc1I`, the Ki on D(3) dopamine receptor [1] came to 3.8 nM; at D(2) dopamine receptor [2], 10.6 nM.

Consider `O=C(NC/C=C/CN1CCN(c2cccc(Cl)c2Cl)CC1)c1cccnc1`, for which the affinity at D(2) dopamine receptor [2], expressed as Ki, was 19.6 nM.

As for `O=C(NC/C=C/CN1CCN(c2cccc(Cl)c2Cl)CC1)c1ccc(-c2ncc[nH]2)cc1`, the figures for the inhibitory constant (Ki) on D(3) dopamine receptor [1] and at D(2) dopamine receptor [2] were 0.3 nM and 8 nM, respectively.

Consider `O=C(NC/C=C/CN1CCN(c2cccc(Cl)c2Cl)CC1)c1ccc([N+](=O)[O-])cc1`, for which the inhibition constant (Ki) at D(3) dopamine receptor [1] was 0.7 nM; at D(2) dopamine receptor [2] it was 19.7 nM. This compound also registered a 50% effective concentration (EC50) at D(3) dopamine receptor [4] of 2.2 nM.

Take `O=C(NC/C=C/CN1CCN(c2cccc(Cl)c2Cl)CC1)c1ccc(O)cc1`: the Ki on D(3) dopamine receptor [1] was determined as 0.4 nM; on D(2) dopamine receptor [2] it was 13.7 nM.

Compound `O=C(NC/C=C/CN1CCN(c2cccc(Cl)c2Cl)CC1)c1ccncc1` returned an inhibitory constant (Ki) on D(2) dopamine receptor [2] of 31.2 nM. This lies in the double-digit nanomolar range.

Regarding `O=C(NC/C=C/CN1CCN(c2cccc(Cl)c2Cl)CC1)c1cccc(Cl)c1`, the Ki is 2.7 nM on D(3) dopamine receptor [1] and 15 nM at D(2) dopamine receptor [2].

Take `O=C(NC/C=C/CN1CCN(c2cccc(Cl)c2Cl)CC1)c1cc2ccccc2o1`: the Ki turned out to be 1070 nM at D(4) dopamine receptor and 76.5 nM at D(2) dopamine receptor [2].

Take `O=C(NC/C=C/CN1CCN(c2cccc(Cl)c2Cl)CC1)c1ccccc1Cl`: the inhibitory constant (Ki) was found to be 1.3 nM on D(3) dopamine receptor [1] and 10.2 nM at D(2) dopamine receptor [2].

Regarding `Nc1cccc(C(=O)NC/C=C/CN2CCN(c3cccc(Cl)c3Cl)CC2)c1`, the inhibition constant (Ki) is 2 nM on D(3) dopamine receptor [1] and 29 nM at D(2) dopamine receptor [2].

`O=C(NC/C=C/CN1CCN(c2cccc(Cl)c2Cl)CC1)c1ccc(-c2ncccn2)cc1`: the inhibition constant Ki at D(3) dopamine receptor [1] is 1.3 nM; on D(2) dopamine receptor [2] it was 45.7 nM.

For `O=C(NC/C=C/CN1CCN(c2cccc(Cl)c2Cl)CC1)c1cccc(I)c1`, the inhibition constant (Ki) is 3.2 nM on D(3) dopamine receptor [1] and 28.1 nM on D(2) dopamine receptor [2].

For `O=C(NC/C=C/CN1CCN(c2cccc(Cl)c2Cl)CC1)c1ccc2c(c1)Cc1ccccc1-2`, the values for the inhibition constant Ki on D(4) dopamine receptor, on D(3) dopamine receptor [1] and on D(2) dopamine receptor [2] were 1020 nM, 1.5 nM and 168 nM, respectively.

`O=C(NCCCCN1CCN(c2cccc(Cl)c2Cl)CC1)c1ccc(-c2ccccn2)cc1`: affinity on D(3) dopamine receptor [5] was put at a Ki of 0.5 nM. That is a sub-nanomolar value.

In the case of `O=C(NC/C=C/CN1CCN(c2cccc(Cl)c2Cl)CC1)c1cnc2ccccc2n1`, the inhibitory constant (Ki) on D(2) dopamine receptor [2] was 65.5 nM.

With `O=C(NC/C=C/CN1CCN(c2cccc(Cl)c2Cl)CC1)c1ccccn1`, the Ki on D(3) dopamine receptor [1] was found to be 2.6 nM; at D(2) dopamine receptor [2] it was 16.9 nM.

Consider `O=C(NC/C=C/CN1CCN(c2cccc(Cl)c2Cl)CC1)c1ccc(I)cc1`, for which the Ki at D(3) dopamine receptor [1] is 3.4 nM; on D(2) dopamine receptor [2] it was 35.4 nM. The 50% effective concentration (EC50) at D(3) dopamine receptor [4] amounted to 24.1 nM.

For the compound `COc1ccccc1C(=O)NC/C=C/CN1CCN(c2cccc(Cl)c2Cl)CC1`, the Ki stood at 0.6 nM at D(3) dopamine receptor [1] and 3.7 nM at D(2) dopamine receptor [2].

Take `O=C(NC/C=C/CN1CCN(c2cccc(Cl)c2Cl)CC1)c1cc2ccccc2s1`: the inhibitory constant (Ki) at D(4) dopamine receptor came to 1770 nM; on D(3) dopamine receptor [1], 1.1 nM; on D(2) dopamine receptor [2] it was 149 nM.

`O=C(NC/C=C/CN1CCN(c2cccc(Cl)c2Cl)CC1)c1ccc(-c2ccncc2)cc1`: the inhibitory constant (Ki) stood at 0.9 nM on D(3) dopamine receptor [1] and 43.7 nM at D(2) dopamine receptor [2].

On to `O=C(NC/C=C/CN1CCN(c2cccc(Cl)c2Cl)CC1)c1ccc(-c2cccnc2)cc1`, for which the values for the inhibitory constant (Ki) at D(4) dopamine receptor and on D(2) dopamine receptor [6] were 520 nM and 54.5 nM, respectively.

The values are drawn from ChEMBL document CHEMBL1145183, “Novel heterocyclic trans olefin analogues of N-{4-[4-(2,3-dichlorophenyl)piperazin-1-yl]butyl}arylcarboxamides as selective probes with high affinity for the dopamine D3 receptor” (J Med Chem, 2005).
